Legend:
Type in all cases: cell-based, human
CD8+-T-lymphocytes = test: HLA-A*0201-tetramer staining of peripheral blood mononuclear cells from healthy individuals
Text: Peripheral blood mononuclear cells from healthy patients were stained with HLA-A*0201-tetramers which were folded with adipophilin-, keratin 18- or met-protooncogene (c-Met)-peptides: For generation of the tetramers, recombinant HLA-A*0201-molecules were folded in vitro with the peptides […] (SEQ ID No. 2, adipophilin), […] (SEQ ID No. 3, keratin 18) or […] (SEQ ID No. 1, met-protooncogene, c-Met), purified by means of gel filtration, biotinylated and mixed with streptavidin to link the monomers.
In FIG. 1, the results of double staining are shown in dotplots, whereby in the middle row the results of staining with keratin 18 is shown. Between 0.02 and 0.2% of the CD8^+-positive T-cells were specific for keratin 18.

51Cr-labeled U 266 = test: Lysis-inhibition assay with cold peptide-pulsed T2 inhibitor cells, target U 266; settings: c-Met-peptide-induced CTL, inhibitor:target 20:1, FIGS. 4a and 4b
Description: (§1) To further verify the antigen-specificity and the MHC-restriction of the in-vitro-induced CTL, inhibition assays with non-^51Cr-labeled (“cold”) inhibitor cell lines were performed.
(§2) In doing so, the ability of peptide-pulsed cell lines was analyzed to inhibit the lysis of tumor cells (competition assay). For this purpose, an excess of inhibitor (that is an excess of unlabeled pulsed cells) was used. The ratio of inhibitor (peptide-pulsed cells) to target (tumor cells) was 20:1. When inhibitor cell lines were lysed, no ^51Cr was released, since the inhibitor cell lines were unlabeled.
(§3) Cell line T2 (HLA-A*02; TAP-deficient; see under 2.5.a) was used as inhibitor. Previous to the assay, this cell line T2 was pulsed with the relevant peptides (SEQ ID NOS:1 or 2) or an irrelevant control peptide (Survivin (=Sv), SEQ ID NO:80), respectively.
(§4) In FIGS. 4a and 4b, lysis of the ^51Cr-labeled cell lines U 266 and A 498 was tested without inhibitor cell line (see the curve with black filled boxes); lysis with inhibitor cell line T2, pulsed with an irrelevant peptide (Survivin; SEQ ID NO:80; negative control, curves with the filled triangles); and lyses with the inhibitor cell line T2 pulsed with the c-Met-peptide with SEQ ID NO:1 (curves with the empty rhombus).

[1] = tested on: autologous DC of CLL patient; test: 51Cr-release assay, CTL of CLL patient against autologous peptide-pulsed DC; settings: adipophilin-peptide-induced CTL of CLL patient; FIG. 6
Description: In the CTL-assays, tumor cells, peptide-pulsed cells of different cell lines and autologous DC were used as target cells. Peptide-pulsed cells were pulsed with 50 μg/ml peptide (SEQ ID No. 1 or SEQ ID No. 2) for 2 hours. All target cells were labeled with [^51Cr] sodium chromate in RP10 (RPMI 1640, supplemented with 10% heat inactivated calf serum and antibiotics) for 1 hour at 37° C. Subsequently, 10^4 cells/well were transferred to a 96-well round bottomed plate. Varying numbers of CTL were added to give a final volume of 200 μl and incubated for 4 hours at 37° C. At the end of the assays, supernatants (50 μl/well) were harvested and counted in a beta-plate counter. […] The spontaneous and maximal release were determined in the presence of either medium or 2% Triton X-100, respectively.
In a further experiment, CTL were generated from PBMNC of HLA-A*0201-positive patient with chronic lymphatic leukemia (CLL), which were specific for adipophilin-peptide with SEQ ID NO:2. The patient was in remission after treatment with fludarabine. Further, autologous CLL-cells and DC of this patient were used as ^51Cr-labeled targets in an assay, in which ^51Cr-release is mediated by the peptide-induced CTL.

51Cr-labeled A 498 = test: Lysis-inhibition assay with cold peptide-pulsed T2 inhibitor cells, target A 498
Description: as §1, §2, §3, §4
With these inhibition assays, the cells were incubated with 10 μg/ml antibody previous to seeding on the 96-well-plates for 30 min.

Sequence | healthy individuals with a significant population of specific CD8+-T-lymphocytes (CD8+-T-lymphocytes) | lysis of 51Cr-labeled tumor cells in presence of unlabeled T2 inhibitor cells pulsed with the peptide (51Cr-labeled U 266) | lysis of autologous DC pulsed with the peptide [1] | inhibition of CTL-induced lysis of tumor cell line by T2 cells pulsed with the peptide (51Cr-labeled A 498; adipophilin-peptide-induced CTL, FIG. 4c) | lysis of 51Cr-labeled tumor cells in presence of unlabeled T2 inhibitor cells pulsed with the peptide (51Cr-labeled A 498; c-Met-peptide-induced CTL, inhibitor:target 20:1, FIGS. 4a and 4b)
ALLNIKVKL (listed as Homo sapiens) [SEQ ID No. 3, HLA-A*02 ligand, keratin 18 365-373] | four out of 22 | – | – | – | –
ELTLGEFLKL (listed as Homo sapiens) [Survivin, irrelevant control peptide, reference compound] | – | not able to inhibit | not lysed | not able to inhibit | not able to inhibit

— patent US8536304B2, “Tumour-associated peptides that bind to MHC molecules” (Immatics Biotechnologies GmbH, priority 2002, dated 2013)
